SMILES strings stand for the structures. A value given as a limit tells only on which side of the number the result lay.

Results on 14 molecules are retold here after US20230150974A1 (Foghorn Therapeutics Inc., priority 2020, published 2023).

The target of one assay is T1, HiBit-BRG1 (Homo sapiens, UniProt P51532).
T1 construct: expressed in transfected cells
Kind of assay: HiBit-BRG1 cell-based degradation assay (Nano-Glo HiBiT Lytic Detection). As to conditions: HeLa cells expressing HiBit-BRG1 and LgBit, 24 h; for DC50: read-out: BRG1 HiBit Degradation IC50; for Dmax: read-out: BRG1 HiBit Degradation Maximum (%). In a few lines:
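HeLa cells stably expressing HiBit-BRG1 plus LgBit; compound exposure 24 h; Nano-Glo HiBiT lytic luminescence; % degradation vs DMSO (0%) and 2 μM standard BRM/BRG1 degrader (100%).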

A further assay concerns the target T2, HiBiT-BRM (Homo sapiens, UniProt P51531).
T2 construct: expressed in transfected cells
As to the kind of experiment: HiBiT-BRM cell-based degradation assay (Nano-Glo HiBiT Lytic Detection). As to conditions: HeLa cells expressing HiBiT-BRM, 24 h; for DC50: read-out: BRM HiBit Degradation IC50. The procedure, abridged: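 Luminescence from HiBiT–LgBiT complementation in lysates of a stable HiBiT-BRM HeLa line measured after 24 h compound exposure. Degradation expressed as percent relative to DMSO-treated cells and cells given 2 μM of a known BRM/BRG1 degrader.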
Background: With HiBiT, luminescence reflects the tagged protein that the partner subunit can reach.

T1 sequence (P51532 whole entry): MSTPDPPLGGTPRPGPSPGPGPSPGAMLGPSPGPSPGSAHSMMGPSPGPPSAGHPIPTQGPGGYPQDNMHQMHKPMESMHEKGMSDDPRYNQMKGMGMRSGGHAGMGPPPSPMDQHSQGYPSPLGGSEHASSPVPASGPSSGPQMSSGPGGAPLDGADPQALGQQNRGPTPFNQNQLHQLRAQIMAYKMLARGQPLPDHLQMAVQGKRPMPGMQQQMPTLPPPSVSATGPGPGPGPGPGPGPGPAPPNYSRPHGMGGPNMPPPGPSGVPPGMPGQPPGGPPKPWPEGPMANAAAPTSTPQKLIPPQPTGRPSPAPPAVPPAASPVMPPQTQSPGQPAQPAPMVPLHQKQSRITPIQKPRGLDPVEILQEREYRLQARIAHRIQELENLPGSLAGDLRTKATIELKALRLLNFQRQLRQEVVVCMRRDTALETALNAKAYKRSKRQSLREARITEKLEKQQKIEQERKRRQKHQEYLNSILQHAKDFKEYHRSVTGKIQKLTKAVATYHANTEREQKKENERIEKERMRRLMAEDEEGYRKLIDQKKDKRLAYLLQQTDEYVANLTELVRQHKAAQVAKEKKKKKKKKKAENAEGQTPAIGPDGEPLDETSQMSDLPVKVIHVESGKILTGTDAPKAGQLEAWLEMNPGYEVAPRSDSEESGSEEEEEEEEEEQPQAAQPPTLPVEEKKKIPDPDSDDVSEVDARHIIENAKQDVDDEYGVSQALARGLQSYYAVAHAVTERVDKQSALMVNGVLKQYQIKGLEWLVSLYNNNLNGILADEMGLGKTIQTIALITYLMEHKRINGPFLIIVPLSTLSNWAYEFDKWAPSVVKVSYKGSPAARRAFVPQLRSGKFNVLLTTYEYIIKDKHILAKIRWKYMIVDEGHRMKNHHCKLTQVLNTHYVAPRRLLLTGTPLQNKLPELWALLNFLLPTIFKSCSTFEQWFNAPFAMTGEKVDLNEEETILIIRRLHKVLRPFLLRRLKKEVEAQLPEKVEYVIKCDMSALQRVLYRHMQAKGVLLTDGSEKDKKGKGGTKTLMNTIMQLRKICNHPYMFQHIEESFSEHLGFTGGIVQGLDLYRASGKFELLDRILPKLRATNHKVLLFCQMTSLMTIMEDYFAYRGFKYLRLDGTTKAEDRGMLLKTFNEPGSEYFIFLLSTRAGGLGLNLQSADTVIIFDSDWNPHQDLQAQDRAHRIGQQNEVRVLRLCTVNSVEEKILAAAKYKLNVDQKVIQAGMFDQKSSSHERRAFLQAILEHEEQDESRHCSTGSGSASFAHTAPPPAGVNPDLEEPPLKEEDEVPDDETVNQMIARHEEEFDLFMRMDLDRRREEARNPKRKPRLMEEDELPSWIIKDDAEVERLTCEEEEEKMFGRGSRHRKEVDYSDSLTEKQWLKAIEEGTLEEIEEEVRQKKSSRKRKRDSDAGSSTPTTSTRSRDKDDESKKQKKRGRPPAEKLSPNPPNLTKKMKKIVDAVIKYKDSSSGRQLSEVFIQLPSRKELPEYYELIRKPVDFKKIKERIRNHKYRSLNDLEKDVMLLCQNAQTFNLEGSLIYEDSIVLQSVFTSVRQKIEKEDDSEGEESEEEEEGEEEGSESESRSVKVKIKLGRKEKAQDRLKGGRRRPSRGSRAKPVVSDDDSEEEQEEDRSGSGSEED
T2 sequence (P51531 whole entry): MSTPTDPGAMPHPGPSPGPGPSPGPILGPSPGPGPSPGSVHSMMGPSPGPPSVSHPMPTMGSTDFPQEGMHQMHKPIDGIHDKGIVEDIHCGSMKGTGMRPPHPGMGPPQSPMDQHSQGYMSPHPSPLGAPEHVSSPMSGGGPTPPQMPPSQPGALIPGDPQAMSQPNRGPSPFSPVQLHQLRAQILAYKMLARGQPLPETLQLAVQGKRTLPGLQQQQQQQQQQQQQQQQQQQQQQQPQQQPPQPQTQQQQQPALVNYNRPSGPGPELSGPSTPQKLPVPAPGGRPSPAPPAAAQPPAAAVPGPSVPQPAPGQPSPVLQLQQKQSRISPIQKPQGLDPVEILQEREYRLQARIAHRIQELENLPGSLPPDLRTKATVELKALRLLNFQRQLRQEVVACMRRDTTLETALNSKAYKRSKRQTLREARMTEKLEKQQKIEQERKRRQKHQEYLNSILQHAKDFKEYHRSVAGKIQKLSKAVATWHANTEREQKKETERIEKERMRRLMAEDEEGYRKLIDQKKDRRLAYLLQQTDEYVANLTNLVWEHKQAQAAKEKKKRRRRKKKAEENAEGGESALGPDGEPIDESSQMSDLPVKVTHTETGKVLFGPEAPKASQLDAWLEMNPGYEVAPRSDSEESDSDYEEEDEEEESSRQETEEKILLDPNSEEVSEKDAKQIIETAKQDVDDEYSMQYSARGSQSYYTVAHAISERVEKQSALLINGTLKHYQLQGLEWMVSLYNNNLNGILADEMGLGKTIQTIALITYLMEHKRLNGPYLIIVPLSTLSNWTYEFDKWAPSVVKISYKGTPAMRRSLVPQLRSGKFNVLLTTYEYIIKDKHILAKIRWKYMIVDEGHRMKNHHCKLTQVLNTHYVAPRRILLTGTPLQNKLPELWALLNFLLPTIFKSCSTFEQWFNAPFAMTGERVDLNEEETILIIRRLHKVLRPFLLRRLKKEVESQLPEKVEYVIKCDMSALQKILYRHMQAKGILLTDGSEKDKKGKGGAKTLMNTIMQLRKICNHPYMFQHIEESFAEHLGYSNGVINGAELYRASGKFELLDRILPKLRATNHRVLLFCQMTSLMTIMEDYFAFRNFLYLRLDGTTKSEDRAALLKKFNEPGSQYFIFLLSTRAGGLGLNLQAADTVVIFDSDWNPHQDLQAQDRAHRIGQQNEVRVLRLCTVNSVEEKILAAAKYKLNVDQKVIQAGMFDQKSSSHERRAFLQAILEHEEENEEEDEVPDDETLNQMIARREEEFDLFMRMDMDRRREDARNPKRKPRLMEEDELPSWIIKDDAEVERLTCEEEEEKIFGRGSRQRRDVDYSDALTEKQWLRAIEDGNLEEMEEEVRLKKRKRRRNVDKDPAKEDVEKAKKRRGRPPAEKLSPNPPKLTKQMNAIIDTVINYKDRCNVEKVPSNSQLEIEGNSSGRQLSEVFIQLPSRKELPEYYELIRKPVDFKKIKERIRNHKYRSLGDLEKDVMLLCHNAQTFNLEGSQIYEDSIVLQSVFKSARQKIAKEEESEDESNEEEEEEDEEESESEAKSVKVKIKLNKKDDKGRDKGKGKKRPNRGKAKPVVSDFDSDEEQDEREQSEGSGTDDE

For the molecule `Cc1ncsc1-c1ccc([C@H](C)NC(=O)[C@@H]2C[C@@H](O)CN2C(=O)[C@@H](c2cc(OCCNCCCCCCCCC(=O)NCc3ccc(CCOc4cc(-c5ccccc5O)nnc4N)cc3)no2)C(C)C)cc1` [Compound 239, (2S,4R)-1-((R)-2-(3-(2-((9-((4-(2-((3-amino-6-(2-hydroxyphenyl)pyridazin-4-yl)oxy)ethyl)benzyl)amino)-9-oxononyl)amino)ethoxy)isoxazol-5-yl)-3-methylbutanoyl)-4-hydroxy-N-((S)-1-(4-(4-methylthiazol-5-yl)phenyl)ethyl)pyrrolidine-2-carboxamide], at HiBit-BRG1, the DC50 was greater than 1000 nM and the Dmax was less than 50%. At HiBiT-BRM, the “BRM HiBit Degradation Maximum (%)” value is “A (“A” indicates maximum degradation ≥75%)” and the DC50 was greater than 100 nM.

On to `Nc1nnc(-c2ccccc2O)cc1OCCc1ccc(CNC(=O)CCCCCCCCNc2cccc3c2C(=O)N(C2CCC(=O)NC2=O)C3=O)cc1` (centres unmarked) [Compound 71, N-[[4-(2-[[3-amino-6-(2-hydroxyphenyl)pyridazin-4-yl]oxy]ethyl)phenyl]methyl]-9-[[2-(2,6-dioxopiperidin-3-yl)-1,3-dioxoisoindol-4-yl]amino]nonanamide], for which, at HiBit-BRG1, the DC50 is greater than 1000 nM and the Dmax is less than 50%. Moreover, at HiBiT-BRM, the “BRM HiBit Degradation Maximum (%)” value is “C (“C” indicates maximum degradation <50%)” and the DC50 was greater than 1000 nM.

Consider `Nc1nnc(-c2ccccc2O)cc1N1CCN(CC(=O)NC2CCN(CCOc3ccc4c(c3)C(=O)N(C3CCC(=O)NC3=O)C4=O)CC2)CC1` (centres unmarked) [Compound 82, 2-[4-[3-amino-6-(2-hydroxyphenyl)pyridazin-4-yl]piperazin-1-yl]-N-[1-(2-[[2-(2,6-dioxopiperidin-3-yl)-1,3-dioxoisoindol-5-yl]oxy]ethyl)piperidin-4-yl]acetamide], for which, at HiBit-BRG1, the DC50 was greater than 1000 nM and the Dmax is less than 50%. Besides, on HiBiT-BRM, the “BRM HiBit Degradation Maximum (%)” value is given as “C (“C” indicates maximum degradation <50%)” and the DC50 was greater than 1000 nM.

Consider `Nc1nnc(-c2ccccc2O)cc1OCCc1ccc(C(=O)NCCCCCCCCCCCC(=O)NCc2ccc(S(=O)(=O)Nc3cccc4c(Cl)c[nH]c34)cc2)cc1` [Compound 22, 12-[[4-(2-[[3-amino-6-(2-hydroxyphenyl)pyridazin-4-yl]oxy]ethyl)phenyl]formamido]-N-([4-[(3-chloro-1H-indol-7-yl)sulfamoyl]phenyl]methyl)dodecanamide], for which, at HiBit-BRG1, the DC50 is greater than 1000 nM and the Dmax is less than 50%. Also, at HiBiT-BRM, the “BRM HiBit Degradation Maximum (%)” value is recorded as “C (“C” indicates maximum degradation <50%)” and the DC50 was greater than 1000 nM.

On to `Cc1ncsc1-c1ccc([C@H](C)NC(=O)[C@@H]2C[C@@H](O)CN2C(=O)[C@@H](NC(=O)CCN2CCC(OC3CCN(CCC(=O)NCc4ccc(CCOc5cc(-c6ccccc6O)nnc5N)cc4)CC3)CC2)C(C)(C)C)cc1` [Compound 249, (2S,4R)-1-((S)-2-(3-(4-((1-(3-((4-(2-((3-amino-6-(2-hydroxyphenyl)pyridazin-4-yl)oxy)ethyl)benzyl)amino)-3-oxopropyl)piperidin-4-yl)oxy)piperidin-1-yl)propanamido)-3,3-dimethylbutanoyl)-4-hydroxy-N-((S)-1-(4-(4-methylthiazol-5-yl)phenyl)ethyl)pyrrolidine-2-carboxamide], for which, on HiBit-BRG1, the DC50 was greater than 1000 nM and the Dmax is less than 50%. At HiBiT-BRM, the “BRM HiBit Degradation Maximum (%)” value was “A (“A” indicates maximum degradation ≥75%)” and the DC50 was greater than 1000 nM.

For `Nc1nnc(-c2ccccc2O)cc1OCCc1ccc(CN2CCN(CCOc3cccc4c3C(=O)N(C3CCC(=O)NC3=O)C4=O)CC2)cc1` (centres unmarked) [Compound 126, 4-[2-(4-[[4-(2-[[3-amino-6-(2-hydroxyphenyl)pyridazin-4-yl]oxy]ethyl)phenyl]methyl]piperazin-1-yl)ethoxy]-2-(2,6-dioxopiperidin-3-yl)isoindole-1,3-dione], on HiBit-BRG1, the DC50 is greater than 1000 nM and the Dmax was less than 50%. Also, on HiBiT-BRM, the “BRM HiBit Degradation Maximum (%)” value is “C (“C” indicates maximum degradation <50%)” and the DC50 was greater than 1000 nM.

As for `Nc1nnc(-c2ccccc2O)cc1OCCc1ccc(CN2CC(N3CCN(c4cccc5c4C(=O)N(C4CCC(=O)NC4=O)C5=O)CC3)C2)cc1` (centres unmarked) [Compound 143, 4-(4-(1-(4-(2-((3-amino-6-(2-hydroxyphenyl)pyridazin-4-yl)oxy)ethyl)benzyl)azetidin-3-yl)piperazin-1-yl)-2-(2,6-dioxopiperidin-3-yl)isoindoline-1,3-dione], at HiBit-BRG1, the DC50 is greater than 1000 nM and the Dmax was less than 50%. Moreover, at HiBiT-BRM, the “BRM HiBit Degradation Maximum (%)” value is listed as “C (“C” indicates maximum degradation <50%)” and the DC50 was greater than 1000 nM.

Turning to `Cc1ncsc1-c1ccc(CNC(=O)[C@@H]2C[C@@H](O)CN2C(=O)[C@@H](NC(=O)CCCCCCCCCCCC(=O)NCc2ccc(CCOc3cc(-c4ccccc4O)nnc3N)cc2)C(C)(C)C)cc1` [Compound 31, N1-(4-(2-((3-amino-6-(2-hydroxyphenyl)pyridazin-4-yl)oxy)ethyl)benzyl)-N13-((S)-1-((2S,4R)-4-hydroxy-2-((4-(4-methylthiazol-5-yl)benzyl)carbamoyl)pyrrolidin-1-yl)-3,3-dimethyl-1-oxobutan-2-yl)tridecanediamide], at HiBit-BRG1, the DC50 was greater than 1000 nM and the Dmax was less than 50%. Further, at HiBiT-BRM, the “BRM HiBit Degradation Maximum (%)” value is listed as “B (“B” indicates maximum degradation ≥50%)” and the DC50 was greater than 10 nM.

Consider `Nc1nnc(-c2ccccc2O)cc1OCCc1ccc(CNC(=O)C2CC2CNC(=O)COc2cccc3c2C(=O)N(C2CCC(=O)NC2=O)C3=O)cc1` (centres unmarked) [Compound 7, N-[[4-(2-[[3-amino-6-(2-hydroxyphenyl)pyridazin-4-yl]oxy]ethyl)phenyl]methyl]-2-[(2-[[2-(2,6-dioxopiperidin-3-yl)-1,3-dioxoisoindol-4-yl]oxy]acetamido)methyl]cyclopropane-1-carboxamide], for which, on HiBit-BRG1, the DC50 was greater than 1000 nM and the Dmax was less than 50%. Besides, at HiBiT-BRM, the “BRM HiBit Degradation Maximum (%)” value is given as “C (“C” indicates maximum degradation <50%)” and the DC50 was greater than 1000 nM.

`Nc1nnc(-c2ccccc2O)cc1OCCc1ccc(C(=O)NCC(=O)NCc2ccc(S(=O)(=O)Nc3cccc4c(Cl)c[nH]c34)cc2)cc1` [Compound 18, 2-[[4-(2-[[3-amino-6-(2-hydroxyphenyl)pyridazin-4-yl]oxy]ethyl)phenyl]formamido]-N-([4-[(3-chloro-1H-indol-7-yl)sulfamoyl]phenyl]methyl)acetamide]: at HiBit-BRG1, the DC50 is greater than 1000 nM and the Dmax was less than 50%. Further, at HiBiT-BRM, the “BRM HiBit Degradation Maximum (%)” value is given as “C (“C” indicates maximum degradation <50%)” and the DC50 is greater than 1000 nM.

For `Nc1nnc(-c2ccccc2O)cc1N1CCN(CCNC(=O)CCCCCCCCCCNc2cccc3c2C(=O)N(C2CCC(=O)NC2=O)C3=O)CC1` (centres unmarked) [Compound 88, N-(2-[4-[3-amino-6-(2-hydroxyphenyl)pyridazin-4-yl]piperazin-1-yl]ethyl)-11-[[2-(2,6-dioxopiperidin-3-yl)-1,3-dioxoisoindol-4-yl]amino]undecanamide], at HiBit-BRG1, the DC50 was greater than 1000 nM and the Dmax was less than 50%. Further, on HiBiT-BRM, the “BRM HiBit Degradation Maximum (%)” value is listed as “C (“C” indicates maximum degradation <50%)” and the DC50 was greater than 1000 nM.

Consider `Cc1ncsc1-c1ccc([C@H](C)NC(=O)[C@@H]2C[C@@H](O)CN2C(=O)[C@@H](NC(=O)CCCCCCCCCCN2CCN(Cc3ccc(CCOc4cc(-c5ccccc5O)nnc4N)cc3)CC2)C(C)(C)C)cc1` [Compound 263], for which, on HiBit-BRG1, the DC50 was greater than 1000 nM and the Dmax is less than 50%. Moreover, on HiBiT-BRM, the “BRM HiBit Degradation Maximum (%)” value is given as “A (“A” indicates maximum degradation ≥75%)” and the DC50 was greater than 10 nM.

As for `Cc1ncsc1-c1ccc(CNC(=O)[C@@H]2C[C@@H](O)CN2C(=O)[C@@H](NC(=O)CCN2CC3CN(C(=O)c4ccc(CCOc5cc(-c6ccccc6O)nnc5N)cc4)C3C2)C(C)(C)C)cc1` (stereo partly drawn) [Compound 241, (2S,4R)-1-((2S)-2-(3-(6-(4-(2-((3-amino-6-(2-hydroxyphenyl)pyridazin-4-yl)oxy)ethyl)benzoyl)-3,6-diazabicyclo[3.2.0]heptan-3-yl)propanamido)-3,3-dimethylbutanoyl)-4-hydroxy-N-(4-(4-methylthiazol-5-yl)benzyl)pyrrolidine-2-carboxamide], on HiBit-BRG1, the DC50 is greater than 1000 nM and the Dmax is less than 50%. Moreover, at HiBiT-BRM, the “BRM HiBit Degradation Maximum (%)” value was “C (“C” indicates maximum degradation <50%)” and the DC50 is greater than 1000 nM.

In the case of `Cc1ncsc1-c1ccc([C@H](C)NC(=O)[C@@H]2C[C@@H](O)CN2C(=O)[C@@H](c2cc(OCCN3CCC(OC4CCN(C(=O)c5ccc(CCOc6cc(-c7ccccc7O)nnc6N)cc5)CC4)CC3)no2)C(C)C)cc1` [Compound 210, (2S,4R)-1-((R)-2-(3-(2-(4-((1-(4-(2-((3-amino-6-(2-hydroxyphenyl)pyridazin-4-yl)oxy)ethyl)benzoyl)piperidin-4-yl)oxy)piperidin-1-yl)ethoxy)isoxazol-5-yl)-3-methylbutanoyl)-4-hydroxy-N-((S)-1-(4-(4-methylthiazol-5-yl)phenyl)ethyl)pyrrolidine-2-carboxamide], on HiBit-BRG1, the DC50 is greater than 100 nM and the Dmax was greater than 50%. Besides, at HiBiT-BRM, the “BRM HiBit Degradation Maximum (%)” value is “A (“A” indicates maximum degradation ≥75%)” and the DC50 is less than 10 nM.
